From US20260034111A1, “NOVEL HETEROCYCLES AS sPLA2-X INHIBITORS” (Cayman Chemical Company Incorporated, priority 2022, published 2026)
Where two headings read alike, the source gives them in different places.

Columns and labels:
Format in all cases: biochemical
[1] = biological target: T1, recombinant human sPLA2-V enzyme (Homo sapiens, UniProt P39877); assay: sPLA2-V enzyme inhibition assay (thio-PC substrate, DTNB detection, absorbance 410 nm)
T1 construct: made in house; host or cells: E. coli
T1 sequence (P39877 21-138): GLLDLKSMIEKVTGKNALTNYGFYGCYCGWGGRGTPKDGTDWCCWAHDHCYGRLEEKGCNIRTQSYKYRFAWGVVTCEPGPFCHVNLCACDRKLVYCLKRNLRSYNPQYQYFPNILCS
Description: (§1) Screening Compounds for Inhibition of sPLA2-X, sPLA2-V, and sPLA2-IIA Enzyme Activity
(§2) These sPLA2 enzymes hydrolyze the sn-2 acyl chains of glycerophospholipids, resulting in the release of a free fatty acid and a lysophospholipid. In the case of the thio-PC substrate, this enzymatic hydrolysis results in a free sulfhydryl group remaining on the lysophospholipid. This free sulfhydryl reacts with DTNB to produce the chromogenic product 5-nitro-2-thiobenzoic acid (TNB) which can be quantitated by absorbance at 410 nm. The amount of TNB produced reflects the hydrolytic activity of the enzyme.
(§3) The recombinant human sPLA2 groups IIA, V, and X enzymes were expressed in E. coli and purified to >90% purity by standard biochemical methods.
(§4) Procedure of Enzyme Inhibition for sPLA2-X • 1. […] Dilute the test compounds in 100% DMSO by half-log steps in a 96-well dilution plate using columns 1-11 (one compound per row). Column 12 contains DMSO alone with no compound. • 3. Prepare a 3.5 mM thio-PC substrate solution by drying down 7.2 mg of stock thio-PC in ethanol under a gentle stream of N2 gas. When dry, add 4 mL assay buffer (25 mM Tris, pH7.4; 100 mM KCl; 10 mM CaCl2; 0.1% Triton X-100) and warm in a 37° C. water bath for 20 minutes with intermittent vortexing. • 4. Prepare an “enzyme containing” reaction mix with the following components: 20.4 mL assay buffer; 2 mL DTNB (20 mM in 800 mM Tris, pH8.0); and 11.8 mg recombinant human sPLA2-X enzyme (>95% pure) diluted to a total of 0.8 mL assay buffer. • 5. Prepare a “no enzyme” reaction mix with the following components: 477 μL assay buffer and 45 μL DTNB. • 6. Dispense 58 μL “no enzyme” reaction mix into each of 8 wells (columns 23 and 24, rows M-P). • 7. Dispense 58 μL “enzyme containing” reaction mix into all remaining wells on the plate. • 8. From the 96-well compound dilution plate, add 2 μL from each well for each compound to each of 4 wells with “enzyme containing” reaction mix. Columns 23 and 24 on the assay plate will contain only DMSO (vehicle control). […] After compound addition, mix the contents of each well to ensure that the DMSO is evenly distributed in the well. • 9. Cover the plate and incubate in the dark at room temperature for 15 minutes. • 10. Add 10 μL of thio-PC substrate to all wells. The final concentration of thio-PC in the reactions is 0.5 mM. • 11. Cover the plate and incubate in the dark at room temperature for 30 minutes. • 12. Measure the absorbance of all wells at 410 nm. • 13. Determine the mean absorbance of the “no enzyme” wells. Subtract this value from the absorbance values determined for all other wells (these are now background corrected data). • 14. […] Procedure of Enzyme Inhibition for sPLA2-V • 1. […] Dilute the test compounds in 100% DMSO by half-log steps in a 96-well dilution plate using columns 1-11. Column 12 contains DMSO alone with no compound. • 3. Prepare a 3.5 mM thio-PC substrate solution by drying down 7.2 mg of stock thio-PC in ethanol under a gentle stream of N2 gas. When dry, add 4 mL assay buffer (25 mM Tris, pH7.4; 100 mM KCl; 10 mM CaCl2; 0.1% Triton X-100) and warm in a 37° C. water bath for 20 minutes with intermittent vortexing. • 4. Prepare an “enzyme containing” reaction mix with the following components: 20.4 mL assay buffer; 2 mL DTNB (20 mM in 800 mM Tris, pH8.0); and 12 mg recombinant human sPLA2-V enzyme (>95% pure) diluted to a total of 0.8 mL assay buffer. • 5. Prepare a “no enzyme” reaction mix with the following components: 477 μL assay buffer and […]. • 6. Dispense 58 μL “no enzyme” reaction mix into each of 8 wells (columns 23 and 24, rows M-P). • 7. Dispense 58 μL “enzyme containing” reaction mix into all remaining wells on the plate. • 8. From the 96-well compound dilution plate, add 2 μL from each well for each compound to each of 4 wells with “enzyme containing” reaction mix. Columns 23 and 24 on the assay plate will contain only DMSO (vehicle control).

[2] = biological target: T2, sPLA2-X protein (Homo sapiens, UniProt O15496); assay: sPLA2-X enzyme inhibition assay (thio-PC substrate, DTNB detection, absorbance 410 nm); design: made in house; host or cells: E. coli; conditions: class symbols
T2 sequence (O15496 43-165): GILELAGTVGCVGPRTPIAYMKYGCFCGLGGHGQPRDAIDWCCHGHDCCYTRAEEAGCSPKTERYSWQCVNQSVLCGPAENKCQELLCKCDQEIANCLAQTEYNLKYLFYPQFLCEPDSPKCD
Description: as §1, §2, §3, §4

[3] = biological target: T3, recombinant human sPLA2-IIA enzyme (Homo sapiens, UniProt P14555); assay: sPLA2-IIA enzyme inhibition assay (thio-PC substrate, DTNB detection, absorbance 410 nm); conditions: class symbols
T3 construct: made in house; host or cells: E. coli
T3 sequence (P14555 21-144): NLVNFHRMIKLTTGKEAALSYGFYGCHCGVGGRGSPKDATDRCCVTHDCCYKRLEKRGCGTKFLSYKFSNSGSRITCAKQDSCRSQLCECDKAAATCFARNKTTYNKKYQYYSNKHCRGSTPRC
Description: as §1, §2, §3, §4

[4] = class symbols, read-out: sPLA2 Type V Inhibition (IC50; nM)
[5] = read-out: sPLA2 Type X Inhibition (IC50; nM)
[6] = read-out: sPLA2 Type IIa Inhibition (IC50; nM)

| SMILES | IC50 [1, 4] [nM] | IC50 [2, 5] [nM] | IC50 [3, 6] [nM] | IC50 ([1]; sPLA2 Type V Inhibition (IC50; nM), class symbols) [nM] | IC50 ([2]; sPLA2 Type X Inhibition (IC50; nM)) [nM] | IC50 ([3]; sPLA2 Type IIa Inhibition (IC50; nM)) [nM] | IC50 ([1]; IC50 value for positive control, sPLA2-V, value the positive control should give per the procedure) [nM] | IC50 ([1]; numeric value, control, read-out: sPLA2 Type V Inhibition (IC50; nM)) [nM] |
| --- | --- | --- | --- | --- | --- | --- | --- | --- |
| NC(=O)c1sc2ccc(OC(F)(F)F)cc2c1-c1cccc(C2CC2C(=O)O)n1 (racemic) [Compound 54, trans-(rac)-2-(6-(2-carbamoyl-5-(trifluoromethoxy)benzo[b]thiophen-3-yl)pyridin-2-yl)cyclopropane-1-carboxylic acid] | > 5000 | 50 to 200 | > 1000 |  |  |  |  |  |
| NC(=O)c1[se]c2ccc(OC(F)(F)F)cc2c1-c1cccc(C2CC2C(=O)O)n1 (racemic) [Compound 55, trans-(rac)-2-(6-(2-carbamoyl-5-(trifluoromethoxy)benzo[b]selenophen-3-yl)pyridin-2-yl)cyclopropane-1-carboxylic acid] |  |  |  | > 5000 | > 200 | > 1000 |  |  |
| C[C@]1(c2cccc(-n3c(C(N)=O)cc4ccc(OC(F)(F)F)cc43)c2)C[C@H]1C(=O)O (relative stereo) [Compound 38a, cis-2-(3-(2-carbamoyl-6-(trifluoromethoxy)-1H-indol-1-yl)phenyl)-2-methylcyclopropane-1-carboxylic acid] | < 500 | < 20 | 200 to 500 |  |  |  |  |  |
| C[C@@]1(c2cccc(-n3c(C(N)=O)cc4ccc(OC(F)(F)F)cc43)c2)C[C@H]1C(=O)O (relative stereo) [Compound 38b, trans-2-(3-(2-carbamoyl-6-(trifluoromethoxy)-1H-indol-1-yl)phenyl)-2-methylcyclopropane-1-carboxylic acid] | > 5000 | 20 to 50 | > 1000 |  |  |  |  |  |
| COc1cnc2cc(C(N)=O)n(-c3cccc(C4CC4C(=O)O)n3)c2c1 (single isomer, unassigned) [Compound 51, trans-2-(6-(2-carbamoyl-6-methoxy-1H-pyrrolo[3,2-b]pyridin-1-yl)pyridin-2-yl)cyclopropane-1-carboxylic acid] | > 5000 | > 200 | > 1000 |  |  |  |  |  |
| NC(=O)c1cc2ccc(OC(F)(F)F)cc2n1-c1ccc2c(c1)C(CC(=O)O)CO2 (single isomer, unassigned; (+)) [Compound 1a, (+)-2-(5-(2-carbamoyl-6-(trifluoromethoxy)-1H-indol-1-yl)-2,3-dihydrobenzofuran-3-yl)acetic acid] | > 5000 | 50 to 200 | > 1000 |  |  |  |  |  |
| NC(=O)c1cc2ccc(OC(F)(F)F)cc2n1-c1ccc2c(c1)C(CC(=O)O)CO2 (single isomer, unassigned; (-)) [Compound 1b, (−)-2-(5-(2-carbamoyl-6-(trifluoromethoxy)-1H-indol-1-yl)-2,3-dihydrobenzofuran-3-yl)acetic acid] |  | > 200 | > 1000 |  |  |  |  |  |
| CCc1c(C(=O)C(N)=O)c2c(OCC(=O)O)cccc2n1Cc1ccccc1 [LY315920, Varespladib, reference compound] |  |  |  |  |  |  | ~100 | 124 |

Further lines, with some results ahead:

| IC50 [1, 4] [nM] | IC50 [2, 5] [nM] | IC50 [3, 6] [nM] | SMILES | IC50 ([1]; sPLA2 Type V Inhibition (IC50; nM), class symbols) [nM] | IC50 ([2]; sPLA2 Type X Inhibition (IC50; nM)) [nM] | IC50 ([3]; sPLA2 Type IIa Inhibition (IC50; nM)) [nM] | IC50 ([1]; IC50 value for positive control, sPLA2-V, value the positive control should give per the procedure) [nM] | IC50 ([1]; numeric value, control, read-out: sPLA2 Type V Inhibition (IC50; nM)) [nM] |
| --- | --- | --- | --- | --- | --- | --- | --- | --- |
| > 5000 | 20 to 50 | > 1000 | NC(=O)c1cc2ccc(OC(F)(F)F)cc2n1-c1cccc(C2CC2C(=O)O)c1 (racemic) [Compound 15, trans-2-(3-(2-carbamoyl-6-(trifluoromethoxy)-1H-indol-1-yl)phenyl)cyclopropane-1-carboxylic acid] |  |  |  |  |  |
| > 5000 | < 20 | > 1000 | NC(=O)c1cc2ccc(OC(F)(F)F)cc2n1-c1cccc(C2CC2C(=O)O)n1 (racemic) [Compound 28, trans-(rac)-2-(6-(2-carbamoyl-6-(trifluoromethoxy)-1H-indol-1-yl)pyridin-2-yl)cyclopropane-1-carboxylic acid] |  |  |  |  |  |
| 1500 to 5000 | 20 to 50 | 200 to 500 | NC(=O)c1cc2ccc(OC(F)(F)F)cc2n1-c1cccc(C2CC2C(=O)O)n1 (racemic) [Compound 28c, cis-(rac)-2-(6-(2-carbamoyl-6-(trifluoromethoxy)-1H-indol-1-yl)pyridin-2-yl)cyclopropane-1-carboxylic acid] |  |  |  |  |  |
| > 5000 | < 20 | > 1000 | NC(=O)c1cc2ccc(OC(F)(F)F)cc2n1-c1cccc([C@H]2C[C@@H]2C(=O)O)n1 (relative stereo) [Compound 28a, trans-(−)-2-(6-(2-carbamoyl-6-(trifluoromethoxy)-1H-indol-1-yl)pyridin-2-yl)cyclopropane-1-carboxylic acid] |  |  |  |  |  |
| > 5000 | > 200 | > 1000 | NC(=O)c1cc2ccc(OC(F)(F)F)cc2n1-c1cccc(C2CC2C(=O)O)c1 (single isomer, unassigned) [Compound 15a, trans-(+)-2-(3-(2-carbamoyl-6-(trifluoromethoxy)-1H-indol-1-yl)phenyl)cyclopropane-1-carboxylic acid] |  |  |  |  |  |
| > 5000 | 20 to 50 | > 1000 | NC(=O)c1cc2ccc(OC(F)(F)F)cc2n1-c1cccc(C2CC2C(=O)O)c1 (single isomer, unassigned) [Compound 15b, trans-(−)-2-(3-(2-carbamoyl-6-(trifluoromethoxy)-1H-indol-1-yl)phenyl)cyclopropane-1-carboxylic acid] |  |  |  |  |  |
| > 5000 | > 200 | > 1000 | NC(=O)c1cc2ccc(OC(F)(F)F)cc2n1-c1cccc([C@@H]2C[C@H]2C(=O)O)n1 (single isomer, unassigned) [Compound 28b, trans-(+)-2-(6-(2-carbamoyl-6-(trifluoromethoxy)-1H-indol-1-yl)pyridin-2-yl)cyclopropane-1-carboxylic acid] |  |  |  |  |  |
| 1500 to 5000 | 50 to 200 | > 1000 | NC(=O)c1cc2ccc(OC(F)(F)F)cc2n1-c1cccc(C2CC2C(=O)O)n1 (single isomer, unassigned) [Compound 28d, cis-(−)-2-(6-(2-carbamoyl-6-(trifluoromethoxy)-1H-indol-1-yl)pyridin-2-yl)cyclopropane-1-carboxylic acid] |  |  |  |  |  |
| > 5000 | < 20 | < 200 | NC(=O)c1cc2ccc(OC(F)(F)F)cc2n1-c1cccc(C2CC2C(=O)O)n1 (single isomer, unassigned) [Compound 28e, cis-(+)-2-(6-(2-carbamoyl-6-(trifluoromethoxy)-1H-indol-1-yl)pyridin-2-yl)cyclopropane-1-carboxylic acid] |  |  |  |  |  |
